Measurements from patent US20250188110A1, “SPECIFIC SMALL MOLECULE INHIBITORS THAT BLOCK KMT9 METHYLTRANSFERASE ACTIVITY AND FUNCTION” (ALBERT-LUDWIGS-UNIVERSITÄT FREIBURG, priority 2021, published 2025).

Legend:
KMT9 [1] = target: T1, KMT9 (Homo sapiens, UniProt Q9Y5N5); assay: KMT9 methyltransferase inhibition assay, 3H-SAM scintillation (entries 1-154); type: biochemical; conditions: entries 1-154: 3H-SAM assay, 25 nM KMT9, 5 μM ETF1
T1 sequence (Q9Y5N5 1-214): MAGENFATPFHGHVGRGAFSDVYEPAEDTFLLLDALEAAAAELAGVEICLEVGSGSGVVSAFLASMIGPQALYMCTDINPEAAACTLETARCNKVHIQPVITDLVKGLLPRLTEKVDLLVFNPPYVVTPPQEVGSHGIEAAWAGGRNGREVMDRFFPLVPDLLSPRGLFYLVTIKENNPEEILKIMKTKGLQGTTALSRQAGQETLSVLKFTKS
T1 sequence (Q9UI30 1-120 isoform Q9UI30-2 partner): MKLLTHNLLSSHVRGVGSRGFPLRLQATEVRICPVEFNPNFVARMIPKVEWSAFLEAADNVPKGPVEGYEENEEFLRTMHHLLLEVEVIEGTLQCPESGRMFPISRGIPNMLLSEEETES
Protocol: The assay was carried out in 0.5 mL Eppendorf tubes in duplicates. Assay buffer consisted of 50 mM BTP, 1 mM MgCl2, 1 mM DTT and 0.01% Triton-X^100 at a pH of 8.5 (adjusted using 1 M HCl and 1 M NaOH). 20X inhibitor stock (in DMSO), 2X enzyme stock and 4X substrate mix (both in assay buffer) were prepared. The substrate mix consisted of Tritium-labelled S-adenosylmethionine (3H-SAM), S-adenosylmethionine (SAM) and eukaryotic peptide chain release factor subunit1 (Homo sapiens, residues 140-275)(ETF1). Final assay concentrations were set to 25 nM KMT9, 0.3 μM 3H-SAM, 0.7 µM SAM and 5 μM ETF1. […] 5 μL of 4x substrate mix was added to initiate the reaction. The final reaction volume was 20 μL. For the positive control, the compound of formula (I) was replaced by DMSO; for the negative control, the compound of formula (I) was replaced by DMSO and KMT9 was replaced by assay buffer. The reaction mix was incubated in an Eppendorf thermomixer comfort at 30° C. for 2 h, shaking at 300 rpm. The reaction was quenched using 5 μL 50% trichloroacetic acid (TCA) and incubated at 25° C. for 5 minutes. 22 μL of the mixture was transferred into 96-well MultiScreen@HTS FB filter plates (Merck KGaA, Darmstadt, Germany) and washed four times with 10% TCA and two times with 100% ethanol. The plate was dried overnight, the filters were transferred into individual 6 mL Pony Vials (Perkin Elmer Inc, Waltham, MA, USA) and incubated in 3 mL of Ultima Gold scintillation cocktail (Perkin Elmer Inc, Waltham, MA, USA) for 30 minutes. The scintillation signal was measured for 3x 1 min using TriCarb 2910 TR (Perkin Elmer) scintillation counter in 3H CPM mode (LL: 0, UL: 18.6). Inhibition was calculated using the following formula: […]
With xc: signal of compound, Xpos: mean signal of positive control, Xneg: mean signal of negative control. Data fitting was carried out by GraphPad 7.0 using nonlinear fit ([Inhibitor]vs. response-variable slope (four parameters)).
For the results of the methyltransferase inhibition assay shown as “Inhibition” in Table 1, “I” represents an IC50 less than 0.1 μM, “II” represents an IC50 equal or higher than 0.1 μM and less than 1 μM, “III” represents an IC50 equal or higher than 1 µM and less than 10 µM and “IV” represents an IC50 equal or higher than 10 µM

KMT9 [2] = target: T1, KMT9; assay: KMT9 thermal shift assay (SyproOrange); type: binding; conditions: ΔTm; 500 µM compound, 2 μM KMT9, 5X SO; read-out: Thermal shift
Protocol: The assay was carried out in 96-well Hard-Shell PCR plates (Bio-Rad Laboratories Inc.). Assay buffer consisted of 50 mM BTP, 1 mM MgCl2 and 1 mM DTT at a pH of 8.5 (adjusted using 1 M HCl and 1 M NaOH). 20X inhibitor stock (in DMSO), 2X enzyme stock and 4X SyproOrange (SO) stock (both in assay buffer) were prepared. 1 μL of 20X compound, 4 μL of assay buffer, 10 μL of 2X KMT9 and 5 μL of 4X SO were pipetted. For the no-compound control, 20X inhibitor stock was replaced by DMSO. The final volume was 20 μL. The plate was spun down at 700 rpm for 1 min using a Hettich UNIVERSAL 320 centrifuge and incubated at 25° C., shaking at 600 rpm. After incubation, the plate was spun down for 1 min at 700 rpm and measurement was conducted using a CFX96 Touch Real-Time PCR Detection System (Bio-Rad Laboratories Inc.). The plate was equilibrated at 20° C. for 4 min and then heated stepwise at a rate of 1° C. per 15 s until 95° C. After every step, fluorescence was measured in FRET mode. Calculation of melting points was conducted by a Boltzman sigmoidal model using GraphPad Prism 7.0.
For the results of the thermal shift assay shown as “Thermal shift” in Table 1, “++++” represents a ΔTm of greater 20 K, “+++” represents a ΔTm of greater than 15 K and less than or equal to 20 K (15 K<ΔTm≤20 K); “++” represents a ΔTm of greater than 10 K and less than or equal to 15 K (10 K<ΔTm ≤ 15 K); “+” represents a ΔTm of equal to or less than 10 K (ΔTm≤10 K).

KMT9 [3] = target: T1, KMT9; assay: Microscale thermophoresis (MST) KMT9 binding; conditions: microscale thermophoresis, His-tag labelled KMT9 (20 nM); read-out: MST
Protocol: To determine the binding affinity of the compounds according to the present invention and KMT9, microscale thermophoresis (MST) analysis was performed with a NanoTemper Monolith NT.115 instrument (NanoTemper Technologies GmbH). KMT9 was labelled with a RED-Tris-NTA labelling kit (NanoTemper Technologies GmbH) based on the manufacturer's instructions. Buffer including 25 mM HEPES (pH 7.5), 100 mM NaCl, 1 mM DTT and 0.05% Tween was used for the reaction buffer. Varying concentrations of the tested compounds of formula (I) as indicated in Table 1 were titrated against His-tag labelled KMT9 proteins (20 nM). Samples were loaded into standard Capillaries (NanoTemper Technologies GmbH) and MST measurements were performed using 40% MST power and 100% LED power. For each set of binding experiments, MST measurement was carried out with Binding Affinity module in MO.Control program under Nano-RED Excitation. Datasets were processed with the MO.Affinity Analysis software (NanoTemper Technologies GmbH).
For the results of the microscale thermophoresis (MST) assay shown as “MST” in Table 1, “A” represents a Kd of equal to or less than 10 nM (Kd≤10 nM); “B” represents a Kd of greater than 10 nM and equal to or less than 100 nM (10 nM<Kd<100 nM); “C” represents a Kd of greater than 100 nM and equal to or less than 1000 nM (100 nM<Kd ≤ 1000 nM); “D” represents a Kd of greater than 1000 nM (1000 nM<Kd).

Row | SMILES | IC50 (KMT9 [1]) [µM] | ΔTm at 500 µM (KMT9 [2]) [°C] | Kd (KMT9 [3]) [µM]
1 | CNc1ncnc2c1ccn2[C@@H]1C[C@H](CN(CCCNCCc2ccccc2)c2ccn(C)n2)[C@@H](O)[C@H]1O [443 (315), (1R,2S,3R,5R)-3-[4-(Methylamino)pyrrolo[2,3-d]pyrimidin-7-yl]-5-{[(1-methylpyrazol-3-yl)({3-[(2-phenylethyl)amino]propyl})amino]methyl}cyclopentane-1,2-diol] | > 10 | ≤ 10 | > 1
2 | CNc1ncnc2c1ccn2[C@@H]1C[C@H](CS(=O)(=O)CCNCCc2ccccc2)[C@@H](O)[C@H]1O [433 (305), (1R,2S,3R,5S)-3-(4-(Methylamino)-7H-pyrrolo[2,3-d]pyrimidin-7-yl)-5-(((2-(phenethylamino)ethyl)sulfonyl)methyl) cyclopentane-1,2-diol] | > 10 | ≤ 10 | > 1
3 | CCC(=O)NCCCNC[C@H]1O[C@@H](n2cnc3c(N)ncnc32)[C@H](O)[C@@H]1O [313 (212), N-(3-((((2R,3S,4R,5R)-5-(6-amino-9//-purin-9-yl)-3,4-dihydroxytetrahydrofuran-2-yl)methyl)amino)propyl)propionamide] | > 10 | ≤ 10 | > 1
4 | CNc1ncnc2c1ccn2[C@@H]1C[C@H](CN(CCCNCCc2ccccc2)c2cc[nH]n2)[C@@H](O)[C@H]1O [444 (316)] | 1 to 10 | ≤ 10 | > 1
5 | CNc1ncnc2c1ccn2[C@@H]1C[C@H](CSCCCNCCc2ccccc2)[C@@H](O)[C@H]1O [427 (299), (1R,2S,3R,5S)-3-(4-(methylamino)-7H-pyrrolo[2,3-d]pyrimidin-7-yl)-5-(((3-(phenethylamino)propyl)thio)methyl) cyclopentane-1,2-diol] | 1 to 10 | ≤ 10 | > 1

Next, values leading:

Row | IC50 (KMT9 [1]) [µM] | ΔTm at 500 µM (KMT9 [2]) [°C] | Kd (KMT9 [3]) [µM] | SMILES
6 | 1 to 10 | 10 to 15 | 0.1 to 1 | CCc1cn([C@@H]2C[C@H](CNCCCNCCc3ccccc3)[C@@H](O)[C@H]2O)c2ncnc(N)c12 [465 (339), (1R,2S,3R,5R)-3-{4-amino-5-ethylpyrrolo[2,3-d]pyrimidin-7-yl}-5-[{{3-[(2-phenylethyl)amino]propyl}amino)methyl]cyclopentane-1,2-diol]
7 | > 10 | 15 to 20 | 0.01 to 0.1 | Nc1ncnc2c1c(Br)cn2[C@@H]1C[C@H](CNCCCNCCc2ccccc2)[C@@H](O)[C@H]1O [463 (337), (1R,2S,3R,5R)-3-(4-Amino-5-bromo-7H-pyrrolo[2,3-d]pyrimidin-7-yl)-5-(((3-(phenethylamino)propyl)amino)methyl) cyclopentane-1,2-diol]
8 | 1 to 10 | 15 to 20 | 0.01 to 0.1 | Nc1ncnc2c1c(-c1ccn(Cc3ccccc3)n1)cn2[C@@H]1C[C@H](CNCCCNCCc2ccccc2)[C@@H](O)[C@H]1O [477 (351), (1R,2S,3R,5R)-3-(4-Amino-5-(1-benzyl-1H-pyrazol-3-yl)-7H-pyrrolo[2,3-d]pyrimidin-7-yl)-5-(((3-(phenethylamino)propyl)amino)methyl) cyclopentane-1,2-diol]
9 | 1 to 10 | 10 to 15 | 0.01 to 0.1 | Nc1ncnc2c1c(-c1nc(Cc3ccccc3)cs1)cn2[C@@H]1C[C@H](C2CCNCC2)[C@@H](O)[C@H]1O [Compound 488, (1R,2S,3R,5R)-3-(4-amino-5-(4-benzylthiazol-2-yl)-7H-pyrrolo[2,3-d]pyrimidin-7-yl)-5-(piperidin-4-yl)cyclopentane-1,2-diol]
10 | > 10 | ≤ 10 | > 1 | CNc1ncnc2c1c(Br)cn2[C@@H]1C[C@H](CNCCCNCCc2cccc(Oc3ccccc3)c2)[C@@H](O)[C@H]1O [458 (330), (1R,2S,3R,5R)-3-(5-Bromo-4-(methylamino)-7H-pyrrolo[2,3-d]pyrimidin-7-yl)-5-(((3-((3-phenoxyphenethyl)amino)propyl)amino)methyl) cyclopentane-1,2-diol]
